A value given as a limit tells only on which side of the number the result lay.

Experimental findings from patent publication US8686184B2, “Neprilysin inhibitors” (Theravance, Inc., priority 2011, dated 2014) are described below.

For this experiment, the target named is T1, human neprilysin (EC 3.4.24.11; NEP) (Homo sapiens, UniProt P08473).
T1 construct: purchased R&D Systems, Minneapolis, Minn; 1182-ZN
Description: In vitro enzyme inhibition assay at human NEP (fluorogenic peptide substrate). In kind it is biochemical. The settings on record: recombinant human NEP; 37° C.; substrate Mca-D-Arg-Arg-Leu-Dap-(Dnp)-OH 10 μM; values given as ranges; read-out: pKi values at human NEP (converted). Here is the method: In vitro Assays for the Quantitation of Inhibitor Potencies at Human and Rat NEP, and Human ACE
The inhibitory activities of compounds at human and rat neprilysin (EC 3.4.24.11; NEP) and human angiotensin converting enzyme (ACE) were determined using in vitro assays as described below.
Recombinant human NEP and recombinant human ACE were obtained commercially (R&D Systems, Minneapolis, Minn., catalog numbers 1182-ZN and 929-ZN, respectively). The fluorogenic peptide substrate Mca-D-Arg-Arg-Leu-Dap-(Dnp)-OH (Medeiros et al. (1997) Braz. J. Med. Biol. Res. 30:1157-62; Anaspec, San Jose, Calif.) and Abz-Phe-Arg-Lys(Dnp)-Pro-OH (Araujo et al. (2000) Biochemistry 39:8519-8525; Bachem, Torrance, Calif.) were used in the NEP and ACE assays respectively.
The assays were performed in 384-well white opaque plates at 37° C. using the fluorogenic peptide substrates at a concentration of 10 μM in Assay Buffer (NEP: 50 mM HEPES, pH 7.5, 100 mM NaCl, 0.01% polyethylene glycol sorbitan monolaurate (Tween-20), 10 μM ZnSO4; ACE: 50 mM HEPES, pH 7.5, 100 mM NaCl, 0.01% Tween-20, 1 μM ZnSO4).
Test compounds were assayed over the range of concentrations from 10 μM to 20 pM. Test compounds were added to the enzymes and incubated for 30 minute at 37° C. prior to initiating the reaction by the addition of substrate. Reactions were terminated after 20 minutes of incubation at 37° C. by the addition of glacial acetic acid to a final concentration of 3.6% (v/v).
Plates were read on a fluorometer with excitation and emission wavelengths set to 320 nm and 405 nm, respectively Inhibition constants were obtained by nonlinear regression of the data using the equation (GraphPad Software, Inc., San Diego, Calif.): v=v0/[1+(I/K′)] where v is the reaction rate, v0 is the uninhibited reaction rate, I is the inhibitor concentration and K′ is the apparent inhibition constant.
Compounds of the invention were tested in this assay and found to have pKi values at human NEP as follows.

T1 sequence (P08473 52-750 limits assumed): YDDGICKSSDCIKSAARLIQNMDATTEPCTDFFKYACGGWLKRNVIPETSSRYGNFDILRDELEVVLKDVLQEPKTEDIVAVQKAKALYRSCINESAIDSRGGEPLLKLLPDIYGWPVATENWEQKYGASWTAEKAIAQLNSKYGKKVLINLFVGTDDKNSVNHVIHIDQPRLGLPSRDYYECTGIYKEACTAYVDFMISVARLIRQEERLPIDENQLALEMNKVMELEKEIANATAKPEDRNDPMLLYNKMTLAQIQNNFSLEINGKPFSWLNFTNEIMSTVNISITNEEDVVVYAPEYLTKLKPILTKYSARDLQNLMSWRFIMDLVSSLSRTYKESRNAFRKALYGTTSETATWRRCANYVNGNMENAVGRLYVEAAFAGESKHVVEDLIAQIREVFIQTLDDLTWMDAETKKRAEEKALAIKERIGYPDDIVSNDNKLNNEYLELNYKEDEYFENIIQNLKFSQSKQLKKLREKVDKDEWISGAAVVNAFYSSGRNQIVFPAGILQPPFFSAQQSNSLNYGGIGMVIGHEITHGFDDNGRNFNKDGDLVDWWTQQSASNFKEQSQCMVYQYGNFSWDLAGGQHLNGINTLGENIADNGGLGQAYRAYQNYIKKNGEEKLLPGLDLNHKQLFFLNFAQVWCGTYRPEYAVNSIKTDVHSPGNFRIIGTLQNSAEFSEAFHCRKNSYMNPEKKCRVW

Consider `O=C(N[C@H](Cc1ccccc1)[C@@H](O)C(=O)O)c1ccc(-n2cccc2)cc1` [Example 10-43, (2R,3R)-2-Hydroxy-4-phenyl-3-(4-pyrrol-1-yl-benzoylamino)-butyric acid], for which the Ki is 12.6 to 100 nM. With `O=C(N[C@H](Cc1ccccc1)[C@@H](O)C(=O)O)c1ccc(Cn2cccc2)cc1` [Example 10-44, (2R,3R)-2-Hydroxy-4-phenyl-3-(4-pyrrol-1-ylmethyl-benzoylamino)-butyric acid] the figure was 12.6 to 100 nM.

Take `Cc1nnnn1Cc1ccc(C(=O)N[C@H](Cc2ccccc2)[C@@H](O)C(=O)O)cc1` [Example 10-45, (2R,3R)-2-Hydroxy-3-[4-(5-methyl-tetrazol-1-ylmethyl)-benzoylamino]-4-phenyl-butyric acid]: the Ki was 12.6 to 100 nM. Turning to `O=C(N[C@H](Cc1ccccc1)[C@@H](O)C(=O)O)c1ccc(Cn2ccnc2)cc1` [Example 10-46, (2R,3R)-2-Hydroxy-3-(4-imidazol-1-ylmethyl-benzoylamino)-4-phenyl-butyric acid], the Ki was 12.6 to 100 nM. Next, `O=C(N[C@H](Cc1ccccc1)[C@@H](O)C(=O)O)c1ccc(CCn2ccnc2)cc1` [Example 10-47, (2R,3R)-2-Hydroxy-3-[4-(2-imidazol-1-yl-ethyl)-benzoylamino]-4-phenyl-butyric acid]: 12.6 to 100 nM. As to `O=C(O)Cc1ccccc1-c1ccc(C(=O)N[C@H](Cc2ccccc2)[C@@H](O)C(=O)O)cc1` [Example 10-48, (2R,3R)-3-[(2′-Carboxymethyl-biphenyl-4-carbonyl)-amino]-2-hydroxy-4-phenyl-butyric acid], the Ki is 1.26 to 10 nM. With `O=C(O)Cc1cccc(-c2ccc(C(=O)N[C@H](Cc3ccccc3)[C@@H](O)C(=O)O)cc2)c1` [Example 10-49, (2R,3R)-3-[(3′-Carboxymethyl-biphenyl-4-carbonyl)-amino]-2-hydroxy-4-phenyl-butyric acid] the figure was 12.6 to 100 nM; with `O=C(O)Cc1ccc(-c2ccc(C(=O)N[C@H](Cc3ccccc3)[C@@H](O)C(=O)O)cc2)cc1` [Example 10-50, (2R,3R)-3-[(4′-Carboxymethyl-biphenyl-4-carbonyl)-amino]-2-hydroxy-4-phenyl-butyric acid], 12.6 to 100 nM; with `O=C(O)c1cccc(-c2ccc(C(=O)N[C@H](Cc3ccccc3)[C@@H](O)C(=O)O)cc2)c1` [Example 10-51, 4′-((1R,2R)-1-Benzyl-2-carboxy-2-hydroxy-ethylcarbamoyl)-biphenyl-3-carboxylic acid], 12.6 to 100 nM. Next, `O=C(Nc1ccc(C(=O)N[C@H](Cc2ccccc2)[C@@H](O)C(=O)O)cc1)Nc1sccc1C(=O)O` [Example 10-52]: 12.6 to 100 nM; `Cc1cc(C(=O)O)c(NC(=O)Nc2ccc(C(=O)N[C@H](Cc3ccccc3)[C@@H](O)C(=O)O)cc2)s1` [Example 10-53]: 12.6 to 100 nM. Next, `Cc1ccc(C(=O)N[C@H](Cc2ccccc2)[C@@H](O)C(=O)O)cc1Br` [Example 10-54, (2R,3R)-3-(3-Bromo-4-methyl-benzoylamino)-2-hydroxy-4-phenyl-butyric acid]: 12.6 to 100 nM; `CC(C)c1ccc(C(=O)N[C@H](Cc2ccccc2)[C@@H](O)C(=O)O)cc1Br` [Example 10-55, (2R,3R)-3-(3-Bromo-4-isopropyl-benzoylamino)-2-hydroxy-4-phenyl-butyric acid]: 12.6 to 100 nM; `CCCNc1ccc(C(=O)N[C@H](Cc2ccccc2)[C@@H](O)C(=O)O)cc1Cl` [Example 10-56, (2R,3R)-3-(3-Chloro-4-propylamino-benzoylamino)-2-hydroxy-4-phenyl-butyric acid]: 12.6 to 100 nM. For `Cc1cc(C(=O)N[C@H](Cc2ccccc2)[C@@H](O)C(=O)O)ccc1-n1c(C)cc(C=O)c1C` [Example 10-57, (2R,3R)-3-[4-(3-Formyl-2,5-dimethyl-pyrrol-1-yl)-3-methyl-benzoylamino]-2-hydroxy-4-phenyl-butyric acid], the Ki is 12.6 to 100 nM. As to `Cc1cc(C(=O)N[C@H](Cc2ccccc2)[C@@H](O)C(=O)O)ccc1-n1cccc1` [Example 10-58, (2R,3R)-2-Hydroxy-3-(3-methyl-4-pyrrol-1-yl-benzoylamino)-4-phenyl-butyric acid], the Ki was 12.6 to 100 nM.

`O=C(O)CCc1cccc(C(=O)N[C@H](Cc2ccccc2)[C@@H](O)C(=O)O)c1` [Example 10-59, (2R,3R)-3-[3-(2-Carboxy-ethyl)-benzoylamino]-2-hydroxy-4-phenyl-butyric acid]: the Ki is 12.6 to 100 nM. Regarding `CCCC1=NN(c2cccc(C(=O)N[C@H](Cc3ccccc3)[C@@H](O)C(=O)O)c2)C(=O)C1` [Example 10-60, (2R,3R)-2-Hydroxy-3-[3-(5-oxo-3-propyl-4,5-dihydro-pyrazol-1-yl)-benzoylamino]-4-phenyl-butyric acid], the Ki was 12.6 to 100 nM. With `Cc1ccc(C(=O)N[C@H](Cc2ccccc2)[C@@H](O)C(=O)O)cc1-c1ccc(C(=O)O)cc1` [Example 10-61, 5′-((1R,2R)-1-Benzyl-2-carboxy-2-hydroxy-ethylcarbamoyl)-2′-methyl-biphenyl-4-carboxylic acid] the figure was 12.6 to 100 nM; with `Cc1ccc(C(=O)N[C@H](Cc2ccccc2)[C@@H](O)C(=O)O)cc1-c1cccc(C(=O)O)c1` [Example 10-62, 5′-((1R,2R)-1-Benzyl-2-carboxy-2-hydroxy-ethylcarbamoyl)-2′-methyl-biphenyl-3-carboxylic acid], 12.6 to 100 nM; with `O=C(N[C@H](Cc1ccccc1)[C@@H](O)C(=O)O)c1cccc(-c2ncccc2C(=O)O)c1` [Example 10-63, 2-[3-((1R,2R)-1-Benzyl-2-carboxy-2-hydroxy-ethylcarbamoyl)-phenyl]-nicotinic acid], 1.26 to 10 nM. With `O=C(N[C@H](Cc1ccccc1)[C@@H](O)C(=O)O)c1cccc(-c2cccnc2C(=O)O)c1` [Example 10-64, 3-[3-((1R,2R)-1-Benzyl-2-carboxy-2-hydroxy-ethylcarbamoyl)-phenyl]-pyridine-2-carboxylic acid], the Ki is 12.6 to 100 nM. Take `CCc1ccc(C(=O)N[C@H](Cc2ccccc2)[C@@H](O)C(=O)O)cc1-n1c(=O)[nH]c2sc(C)cc2c1=O` [Example 10-65, (2R,3R)-3-[4-Ethyl-3-(6-methyl-2,4-dioxo-1,4-dihydro-2H-thieno[2,3-d]pyrimidin-3-yl)-benzoylamino]-2-hydroxy-4-phenyl-butyric acid]: the Ki was at most 1 nM. On to `CCCCC(=O)Nc1cc(C(=O)N[C@H](Cc2ccccc2)[C@@H](O)C(=O)O)ccc1CC` [Example 10-66, (2R,3R)-3-(4-Ethyl-3-pentanoylamino-benzoylamino)-2-hydroxy-4-phenyl-butyric acid], for which the Ki was 12.6 to 100 nM. As for `CCc1ccc(C(=O)N[C@H](Cc2ccccc2)[C@@H](O)C(=O)O)cc1NC(=O)CC(=O)O` [Example 10-67, (2R,3R)-3-[3-(2-Carboxy-acetylamino)-4-ethyl-benzoylamino]-2-hydroxy-4-phenyl-butyric acid], the Ki is 12.6 to 100 nM.

With `CCc1ccc(C(=O)N[C@H](Cc2ccccc2)[C@@H](O)C(=O)O)cc1NC(=O)c1ccccc1` [Example 10-68, (2R,3R)-3-(3-Benzoylamino-4-ethyl-benzoylamino)-2-hydroxy-4-phenyl-butyric acid], the Ki was 12.6 to 100 nM. As to `CCc1ccc(C(=O)N[C@H](Cc2ccccc2)[C@@H](O)C(=O)O)cc1NC(=O)c1cccnc1` [Example 10-69, (2R,3R)-3-{4-Ethyl-3-[(pyridine-3-carbonyl)-amino]-benzoylamino}-2-hydroxy-4-phenyl-butyric acid], the Ki is 12.6 to 100 nM. For the compound `CCc1ccc(C(=O)N[C@H](Cc2ccccc2)[C@@H](O)C(=O)O)cc1NC(=O)c1ccccn1` [Example 10-70, (2R,3R)-3-{4-Ethyl-3-[(pyridine-2-carbonyl)-amino]-benzoylamino}-2-hydroxy-4-phenyl-butyric acid], the Ki is 12.6 to 100 nM. With `CCc1ccc(C(=O)N[C@H](Cc2ccccc2)[C@@H](O)C(=O)O)cc1NC(=O)c1ccncc1` [Example 10-71, (2R,3R)-3-{4-Ethyl-3-[(pyridine-4-carbonyl)-amino]-benzoylamino}-2-hydroxy-4-phenyl-butyric acid] the figure was 12.6 to 100 nM; with `CCNC(=O)Nc1cc(C(=O)N[C@H](Cc2ccccc2)[C@@H](O)C(=O)O)ccc1CC` [Example 10-72, (2R,3R)-3-[4-Ethyl-3-(3-ethyl-ureido)-benzoylamino]-2-hydroxy-4-phenyl-butyric acid], 12.6 to 100 nM.

For `CCCCNC(=O)Nc1cc(C(=O)N[C@H](Cc2ccccc2)[C@@H](O)C(=O)O)ccc1CC` [Example 10-73, (2R,3R)-3-[3-(3-Butyl-ureido)-4-ethyl-benzoylamino]-2-hydroxy-4-phenyl-butyric acid], the Ki was 12.6 to 100 nM.
